Data taken from PubChem BioAssay (NCI).
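Five compound concentrations were applied to cells in 96-well plates for 48 hours; endpoints were derived by simple linear interpolation of the resulting dose-response curve. Definition used: TGI = concentration required for complete inhibition of growth.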

Legend:
Assay in all cases: NCI tumour cell line growth inhibition, 48 h
A498 renal = tested on: A498 renal
IGROV1 ovarian = tested on: IGROV1 ovarian
MOLT-4 leukemia = tested on: MOLT-4 leukemia
OVCAR-3 ovarian = tested on: OVCAR-3 ovarian
OVCAR-5 ovarian = tested on: OVCAR-5 ovarian
OVCAR-8 ovarian = tested on: OVCAR-8 ovarian
PC-3 prostate = tested on: PC-3 prostate
SF-539 CNS = tested on: SF-539 CNS
SW-620 colon = tested on: SW-620 colon
UACC-257 melanoma = tested on: UACC-257 melanoma
LOX IMVI melanoma = tested on: LOX IMVI melanoma
SNB-19 CNS = tested on: SNB-19 CNS

SMILES	TGI (A498 renal)	TGI (IGROV1 ovarian)	TGI (MOLT-4 leukemia)	TGI (OVCAR-3 ovarian)	TGI (OVCAR-5 ovarian)	TGI (OVCAR-8 ovarian)	TGI (PC-3 prostate)	TGI (SF-539 CNS)	TGI (SW-620 colon)	TGI (UACC-257 melanoma)	TGI (LOX IMVI melanoma)	TGI (SNB-19 CNS)
Cc1sc2nc(-c3cc([N+](=O)[O-])c(Cl)cc3Cl)c(/C=N/N=C(N)N)n2c1C	38.6 µM	9.12 µM	4.64 µM	30.3 µM	> 100 µM	31.6 µM	36.2 µM	88 µM	69.3 µM	26 µM		
Cc1nc2c(n1C(C)(C)C)C(=O)c1ccccc1C2=O		> 100 µM	> 100 µM	> 100 µM		> 100 µM		> 100 µM	> 100 µM	> 100 µM	> 100 µM	> 100 µM
Cc1ccnc2[nH]c(-c3cccc(Cl)c3)cc(=O)c12	> 100 µM	> 100 µM	> 50 µM	0.162 µM	> 100 µM	> 100 µM	> 100 µM		> 100 µM	> 100 µM	> 100 µM	> 100 µM
C1CSCCCSCCSCCCSC1	> 100 µM	> 100 µM	> 100 µM		> 100 µM	> 100 µM	> 100 µM	> 100 µM	> 100 µM	> 100 µM	> 100 µM	> 100 µM
O=C(/C=C/c1cccc(Br)c1)c1cccs1	33.2 µM	36.6 µM	53.2 µM			37.6 µM	31.6 µM	31.9 µM	27.5 µM	33 µM		28.3 µM
COc1ccccc1-c1cc(=O)c2ccccc2[nH]1		> 100 µM	> 100 µM	> 100 µM		> 100 µM		> 100 µM	> 100 µM	> 100 µM	> 100 µM	> 100 µM
CN1C(=S)C(c2ccccc2)Sc2ccccc21 (configuration not stated)		> 100 µM	> 100 µM	> 100 µM	> 100 µM	> 100 µM	> 100 µM			> 100 µM	> 100 µM	> 100 µM
CC(C)SC(C)(NC(=O)C1C(C)(C)CCC1(C)C)C(=O)O (configuration not stated)	> 100 µM		> 100 µM		> 100 µM		> 100 µM	> 100 µM	> 100 µM		> 100 µM	> 100 µM
O=c1c(SSc2coc3cc(F)ccc3c2=O)coc2cc(F)ccc12		20.2 µM	69.6 µM	> 100 µM	> 100 µM	> 100 µM	21.5 µM	> 100 µM	43 µM	77 µM	8.21 µM	> 100 µM
CCCCc1c(C(=O)OC(C)(C)C)cc(C#Cc2cc(C(=O)OC(C)(C)C)c(CCCC)c(C(=O)OC(C)(C)C)c2)cc1C(=O)OC(C)(C)C	> 100 µM	> 100 µM		> 100 µM	> 100 µM		> 100 µM			> 100 µM		> 100 µM
CC1(C)[C@@H](Cn2cnc3c(N)ncnc32)CC[C@@]1(C)CO	> 100 µM	> 100 µM	> 100 µM	> 100 µM	> 100 µM	> 100 µM	> 100 µM		> 100 µM	> 100 µM	> 100 µM	> 100 µM
COc1cc2c(c(OC)c1OC)-c1ccc(SC)c(=O)cc1[C@@H](OC(C)=O)CC2			> 100 µM			> 100 µM	> 100 µM		> 100 µM	> 100 µM	> 100 µM	> 100 µM
O=C(O)CCCCCOc1cccnc1/C=N/NC1=NCCN1	> 100 µM	> 100 µM	> 100 µM	> 100 µM	> 100 µM	> 100 µM		> 100 µM	> 100 µM	> 100 µM	> 100 µM	> 100 µM
CC(C)C(C/C=C1\CC(CO)(COC(=O)c2ccccc2)OC1=O)C(C)C (configuration not stated)	50.7 µM	37.2 µM	42.6 µM	37.7 µM	28 µM	36 µM	32.5 µM		33.8 µM	70.6 µM	54.6 µM	31.8 µM
CCOc1ccc(/C=C(\Cl)c2ccc(OC)c(OC)c2)cc1	> 100 µM	> 100 µM	> 100 µM			> 100 µM		> 100 µM	> 100 µM	97.9 µM		> 100 µM
C=C1C(=O)OC2(C)C3CCC(C3)C12 (configuration not stated)		> 100 µM	> 100 µM	> 100 µM	> 100 µM	> 100 µM		> 100 µM	> 100 µM		> 100 µM	> 100 µM
O=C(Nc1nc2c(=O)[nH]cnc2s1)c1ccccc1	> 100 µM	> 100 µM		> 100 µM	> 100 µM	> 100 µM	> 100 µM	> 100 µM	> 100 µM	> 100 µM	> 100 µM	> 100 µM
